The results in this text go back to patent US11384114B2, “Polymorphic forms of an oxysterol and methods of making them” (Warsaw Orthopedic, Inc., priority 2016, dated 2022).

Values joined by “and” are separate entries in the source; they are usually repeats but may differ in a detail not shown here. Identical values can stand only once.

Holding throughout (assay type): physicochemical
Data set [1] can be described thus: Crystal form stability on vacuum oven drying. Particulars: for Crystal Form (XRPD): solid after drying at 20, 35 or 50 C, solvent system differs per item. The procedure:
2.0 g anhydrous OXY133 was added to 10 mL isopropanol in a 100 mL polyblock reactor. The mixture was heated to 30° C. and then stirred at 30° C. for 45 minutes until the solids were dissolved completely. Acceptable heating temperatures ranged from 25° C. to 35° C. A polish filtration step can be added after dissolving the anhydrous OXY133. The mixture of anhydrous OXY133 and isopropanol was then cooled to 5° C. 20 mL of water was then added to the cooled mixture over 120 minutes at 5° C., resulting in the formation of a precipitate approximately one third of the way through the addition of water. The water addition can also be done in temperature ranges from about 0° C. to about 20° C. with no significant effect on the crystal structure. The resulting mixture of OXY133, isopropanol and water was then stirred at 5° C. for 18 hours. However, it is recommended that the resulting mixture could be mixed for at least 2 hours at 5° C. after the water addition was complete to ensure that all solids were precipitated from the solution. A white solid was collected by rapidly filtering the mixture and then washing the solid with 2.0 mL of an isopropanol:water mixture in a ratio of 1:2 v/v. The filtered and washed solids were then dried in a vacuum oven at 20° C. Acceptable temperatures for drying can range from about 20° C. to about 30° C.

A short description of data set [2]: Karl-Fisher (KF) water determination of isolated solid. Particulars: for KF (water content determined by Karl Fischer water determination method): OXY133 polymorph sample, processing point and temperature differ per item of Table 15; for KF (Wt %) water content: solid isolated from acetone/water slurry at 0-25° C. The source says: Further, Table 15 below is a list of OXY133 polymorphs Forms A, B, C, D, E, F, G, H and I identified by a high performance liquid chromatography (HPLC) followed by charged aerosol detector (CAD) method. Table 15 also lists the starting products, the solvent system including solvent and anti-solvent, the temperature at which a polymorph was formed, the water content of the polymorph as determined by the Karl-Fisher (KF) method of water determination, and where available, the yield and purity of the resulting polymorph.

The nature of a further data set: DSC/TGA water loss. Here is the method:
Differential scanning calorimetry (DSC) and thermo-gravimetric analysis (TGA) were also collected for some of the OXY133 polymorphs. The equipment utilized to collect the DSC/TGA data was a Mettler Toledo DSC 2 equipped with an aluminum 40 μL crimped pan with a pin hole and the ramp rate was 10° C./min. DSC/TGA thermograms identifying several OXY133 polymorphs are illustrated in FIGS. 20-25.

Data set [3] in a line: Stability of the crystal form on stirring in the acetone/water solvent system. The note with it: slurry stirred in acetone/water (Form C at about 20° C.; Form F at about 20° C. or about 5° C.).
Where [4] appears, read: isolated solid, lot 2891-28-1, prepared from anhydrous OXY133 in isopropanol/water at 5° C. (Example 6).

`CCCCCC[C@](C)(O)[C@H]1CC[C@H]2[C@@H]3C[C@H](O)[C@H]4C[C@@H](O)CC[C@]4(C)[C@H]3CC[C@@]21C` [Form 2891-8-3]: the “Crystal Form (XRPD)” value in data set [1] was “Form A”. For the same compound, in data set [2], the KF (water content determined by Karl Fischer water determination method) came out at 3.25% and the “KF (Wt %) water content” value was determined as 3.25 Wt %.

On to `CCCCCC[C@](C)(O)[C@H]1CC[C@H]2[C@@H]3C[C@H](O)[C@H]4C[C@@H](O)CC[C@]4(C)[C@H]3CC[C@@]21C` [Form 2891-9-3], for which the “Crystal Form (XRPD)” value in data set [1] is listed as “Form A”. Also, in data set [2], the KF (water content determined by Karl Fischer water determination method) came out at 3.83% and the “KF (Wt %) water content” value amounted to 3.83 Wt %.

Turning to `CCCCCC[C@](C)(O)[C@H]1CC[C@H]2[C@@H]3C[C@H](O)[C@H]4C[C@@H](O)CC[C@]4(C)[C@H]3CC[C@@]21C` [Form 2891-10-3], the “Crystal Form (XRPD)” value in data set [1] is given as “Form A”. Also, in data set [2], the KF (water content determined by Karl Fischer water determination method) is 4.02% and the “KF (Wt %) water content” value amounted to 4.02 Wt %.

On to `CCCCCC[C@](C)(O)[C@H]1CC[C@H]2[C@@H]3C[C@H](O)[C@H]4C[C@@H](O)CC[C@]4(C)[C@H]3CC[C@@]21C.O` [Form A, (3S,5S,6S,8R,9S,10R,13S,14S,17S)-17-((S)-2-hydroxyoctan-2-yl)-10,13-dimethylhexadecahydro-1H-cyclopenta[a]phenanthrene-3,6-diol, monohydrate], for which the “crystal form change on drying” value in data set [1] (drying at temperatures above about 20° C. to about 30° C.) is listed as “slow conversion of OXY133 monohydrate to a different, unknown crystal form”. In data set [2] (setting [4]), this compound showed a KF of 4.07%. The DSC/TGA in “DSC/TGA water loss” (setting [4]) is on record as 4.76%. In addition, the “water loss (DSC/TGA)” value in “DSC/TGA water loss” (ramp rate 10° C./min, listed as OXY133 monohydrate, monohydrate) was 4.57% and 4.00%.

Turning to `CCCCCC[C@](C)(O)[C@H]1CC[C@H]2[C@@H]3C[C@H](O)[C@H]4C[C@@H](O)CC[C@]4(C)[C@H]3CC[C@@]21C` [Form C], the “stability of crystal form in acetone/water solvent system” value in data set [3] is recorded as “fairly stable”.

Consider `CCCCCC[C@](C)(O)[C@H]1CC[C@H]2[C@@H]3C[C@H](O)[C@H]4C[C@@H](O)CC[C@]4(C)[C@H]3CC[C@@]21C` [Form F], for which the “stability of crystal form in acetone/water solvent system” value in data set [3] is recorded as “somewhat stable”.
